In assay [1] the test system is Hela (human cervical cancer cells). The experiment in a line: MTT cancer cell growth inhibition. The conditions noted are these: Homo sapiens, HeLa, 72 h, MTT, 72 hours incubation; read-out: GI50 Hela. The format is cell-based. In short, it runs like this:
(§1)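 Using a 72 h MTT format, triplicate wells of 1500 cells received compound concentrations from 10^−5 to 10^−10 M. Formazan was read at 570 nm after DMSO dissolution, and GI50 was derived from viability.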

The test system of assay [2] is MDA-MB-231 (breast cancer cells). The experiment in a line: MTT cancer cell growth inhibition. The format is cell-based. As to conditions: Homo sapiens, MDA-MB-231, 72 h, read-out: GI50 MDA-MB-231, MTT, 72 hours incubation, MDA-MB-231 cells. The method, boiled down: as §1
In assay [3] the test system is KBM-5 (human chronic myelogenous leukemia). The experiment in a line: MTT cancer cell growth inhibition. Format: cell-based. As to conditions: Homo sapiens, KBM5, 72 h, MTT, 72 hours incubation, KBM-5 cells; read-out: GI50 KBM-5. The method, boiled down: as §1
The test system of assay [4] is KBM5-T315I (human chronic myelogenous leukemia). The experiment in a line: MTT cancer cell growth inhibition. The conditions noted are these: Homo sapiens, 72 h, MTT, 72 hours incubation, KBM5-T315I cells; read-out: GI50 KBM5-T315I. The format is cell-based. The method, boiled down: as §1
Assay [5] concerns BGC-823 (human gastric cancer cells). The experiment in a line: MTT cancer cell growth inhibition. The conditions noted are these: Homo sapiens, BGC-823, 72 h, MTT, 72 hours incubation; read-out: GI50 BG. The format is cell-based. The method, boiled down:
as §1

The test system of assay [6] is N-87 (human gastric cancer cells). The experiment in a line: MTT cancer cell growth inhibition. Format: cell-based. The conditions noted are these: Homo sapiens, 72 h, MTT, 72 hours incubation, N-87 cells; read-out: GI50 N-87. In short, it runs like this: as §1
The subject of assay [7] is Huh-7 (human hepatoma cells). The experiment in a line: MTT cancer cell growth inhibition. The format is cell-based. As to conditions: Homo sapiens, Huh-7, 72 h, MTT, 72 hours incubation, Huh-7 cells; read-out: GI50 Huh-7. The method, boiled down:
as §1

Assay [8] has as its system SGC-7901 (human gastric cancer cells). The experiment in a line: MTT cancer cell growth inhibition. The conditions noted are these: Homo sapiens, SGC-7901, 72 h, MTT, 72 hours incubation, SGC-7901 cells; read-out: GI50 SGC-7901. The format is cell-based. In short, it runs like this:
as §1

Assay [9] concerns HT1080 (human fibrosarcoma cells). The experiment in a line: MTT cancer cell growth inhibition. The format is cell-based. As to conditions: Homo sapiens, HT-1080, 72 h, MTT, 72 hours incubation; read-out: GI50 HT1. In short, it runs like this:
as §1

Assay [10] has as its target T1, HDAC7 (Homo sapiens, UniProt Q8WUI4).
T1 sequence (Q8WUI4 1-952): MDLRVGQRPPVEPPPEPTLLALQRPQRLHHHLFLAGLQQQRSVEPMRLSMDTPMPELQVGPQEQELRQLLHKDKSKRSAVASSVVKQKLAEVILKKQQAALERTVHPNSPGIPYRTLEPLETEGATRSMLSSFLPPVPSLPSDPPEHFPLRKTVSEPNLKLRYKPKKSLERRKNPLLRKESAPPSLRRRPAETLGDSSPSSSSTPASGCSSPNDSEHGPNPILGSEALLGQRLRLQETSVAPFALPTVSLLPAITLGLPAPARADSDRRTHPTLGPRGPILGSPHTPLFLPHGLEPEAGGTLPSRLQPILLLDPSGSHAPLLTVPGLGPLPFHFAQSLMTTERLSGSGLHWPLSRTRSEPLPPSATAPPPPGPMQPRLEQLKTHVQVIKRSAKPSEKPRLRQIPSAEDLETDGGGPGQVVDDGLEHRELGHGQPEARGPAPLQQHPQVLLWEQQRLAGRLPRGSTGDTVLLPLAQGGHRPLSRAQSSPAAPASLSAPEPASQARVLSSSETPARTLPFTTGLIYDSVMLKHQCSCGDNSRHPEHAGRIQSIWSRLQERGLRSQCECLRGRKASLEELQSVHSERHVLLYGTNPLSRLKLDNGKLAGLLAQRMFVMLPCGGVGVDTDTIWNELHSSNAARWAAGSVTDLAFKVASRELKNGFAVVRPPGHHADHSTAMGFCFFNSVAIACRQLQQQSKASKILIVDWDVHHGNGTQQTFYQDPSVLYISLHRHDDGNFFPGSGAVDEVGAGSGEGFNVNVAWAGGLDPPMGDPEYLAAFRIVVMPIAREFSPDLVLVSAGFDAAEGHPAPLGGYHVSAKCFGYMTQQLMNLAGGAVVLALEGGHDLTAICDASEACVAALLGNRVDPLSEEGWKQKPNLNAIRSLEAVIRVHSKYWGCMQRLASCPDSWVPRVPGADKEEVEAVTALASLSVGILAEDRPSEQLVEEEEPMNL
The experiment in a line: HDAC biochemical activity measurement (fluorescent substrate deacetylation). The conditions noted are these: HDAC7; 37° C. 30 minutes.

Assay [11] addresses HDAC3 (Homo sapiens, UniProt O15379). The description is as above.
Experimental: The chemical activity of the compound is determined according to the degree of deacetylation inhibition of the HDAC enzyme. This experiment measured the degree of deacetylation related to tumor proliferation and metastasis of HDAC1, HDAC2, HDAC3, HDAC8, HDAC11 five subtypes HDAC enzymes. After the substrate containing an acetylated lysine side chain and HDAC enzyme are labeled with a fluorescent label, the fluorescent substrate is de acetyl. The fluorescent labeled substrate is cleaved by the enzyme, and the fluorescent substance is released, which generates 460 nm emission light under the excitation of 360 nm light.
HDAC substrate was diluted with reaction buffer to 200M (reaction concentration of 20M), the HDAC enzyme was diluted to the appropriate concentration, then added different concentrations of the test compounds and acted at 37° C. 30 minutes, and then added the same volume of 2-times concentration substrate developing solution (developer), incubated at room temperature for 15 minutes.
Assay [12] has as its target HDAC1 (Homo sapiens, UniProt Q13547). The assay is described as above.
Assay [13] has as its target T2, HDAC8 (Homo sapiens, UniProt Q9BY41).
T2 sequence (Q9BY41 1-377): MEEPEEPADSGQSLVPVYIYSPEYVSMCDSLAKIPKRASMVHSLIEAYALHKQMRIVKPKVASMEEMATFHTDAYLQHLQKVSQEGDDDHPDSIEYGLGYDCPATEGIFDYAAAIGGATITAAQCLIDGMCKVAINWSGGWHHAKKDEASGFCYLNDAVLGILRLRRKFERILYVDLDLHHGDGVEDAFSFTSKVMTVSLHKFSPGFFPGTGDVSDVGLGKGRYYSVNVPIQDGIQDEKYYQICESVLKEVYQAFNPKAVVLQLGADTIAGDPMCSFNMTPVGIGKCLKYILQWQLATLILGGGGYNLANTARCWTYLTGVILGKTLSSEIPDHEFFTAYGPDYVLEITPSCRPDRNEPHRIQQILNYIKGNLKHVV
Described as above. The conditions noted are these: 37° C. 30 minutes.

The mark [14] stands for this setting: read-out: IC50 HDAC3, HDAC3, 37° C. 30 minutes.
[15] abbreviates: HDAC1, 37° C. 30 minutes, read-out: IC50 HDAC1.
Where [16] appears, read: Table 3, read-out: IC50 HDAC1, D (non-substituent).

Structures are written as SMILES. Where two headings read alike, the source gives them in different places.
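Throughout, for IC50 HDAC1, D (non-substituent): fluorogenic acetyl-lysine substrate (20 µM) deacetylated by HDAC1, then developer releases fluorophore read at 360 nm excitation and 460 nm emission, inhibitor incubated 30 min at 37 °C.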
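Throughout, for IC50 HDAC1: fluorogenic acetyl-lysine substrate (20 µM) deacetylated by HDAC1, then developer releases fluorophore read at 360 nm excitation and 460 nm emission, inhibitor incubated 30 min at 37 °C.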
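Throughout, for IC50 HDAC7: fluorogenic deacetylation assay using acetyl-lysine substrate at 20 µM, enzyme and compound incubated 30 min at 37 °C, then developer added, fluorescence read at 360/460 nm.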

Sequence of HDAC1 (Q13547 whole entry, species assumed): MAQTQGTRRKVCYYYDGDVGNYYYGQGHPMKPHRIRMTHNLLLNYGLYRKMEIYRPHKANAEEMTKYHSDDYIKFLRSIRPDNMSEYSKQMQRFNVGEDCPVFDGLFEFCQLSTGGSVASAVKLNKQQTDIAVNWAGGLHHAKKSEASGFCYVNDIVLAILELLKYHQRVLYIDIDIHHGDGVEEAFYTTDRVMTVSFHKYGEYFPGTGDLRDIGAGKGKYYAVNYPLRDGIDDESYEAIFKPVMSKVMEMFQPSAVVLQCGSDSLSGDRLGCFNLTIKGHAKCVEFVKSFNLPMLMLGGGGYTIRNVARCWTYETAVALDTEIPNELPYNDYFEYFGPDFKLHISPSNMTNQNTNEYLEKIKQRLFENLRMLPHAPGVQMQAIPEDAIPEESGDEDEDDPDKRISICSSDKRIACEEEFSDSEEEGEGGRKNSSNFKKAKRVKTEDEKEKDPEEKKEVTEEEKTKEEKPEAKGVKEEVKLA
Sequence of HDAC3 (O15379 whole entry, species assumed): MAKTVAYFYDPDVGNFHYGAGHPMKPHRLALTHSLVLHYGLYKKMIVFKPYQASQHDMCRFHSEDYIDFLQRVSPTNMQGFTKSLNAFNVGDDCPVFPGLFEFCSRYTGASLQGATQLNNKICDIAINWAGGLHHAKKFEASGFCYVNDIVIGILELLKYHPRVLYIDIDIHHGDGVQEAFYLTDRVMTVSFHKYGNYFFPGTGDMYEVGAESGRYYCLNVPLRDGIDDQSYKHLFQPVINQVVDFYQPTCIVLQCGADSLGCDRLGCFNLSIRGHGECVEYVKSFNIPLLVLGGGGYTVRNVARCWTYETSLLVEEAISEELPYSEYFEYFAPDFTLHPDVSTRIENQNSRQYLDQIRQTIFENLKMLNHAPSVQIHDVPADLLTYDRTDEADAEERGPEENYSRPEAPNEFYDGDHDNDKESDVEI
Sequence of HDAC3 (Q9Y618 395-489 partner limits assumed, species assumed): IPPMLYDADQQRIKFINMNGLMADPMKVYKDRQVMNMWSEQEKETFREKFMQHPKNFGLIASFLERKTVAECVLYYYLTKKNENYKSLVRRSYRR

As for `C=C1NC(=O)c2cccc(n2)CNC(=O)C[C@@H](/C=C/CCSC(C)=O)OC(=O)[C@H](C(C)C)NC1=O` [Compound 19], the GI50 (commonly the concentration at which growth is held to half of that of the control) in [1] was found to be 60 nM; in assay [2] it was 95 nM; in assay [3], 53 nM; in assay [4], 24 nM; in assay [5], 90 nM; in assay [6], 51 nM. The GI50 in assay [7] is 92 nM; in assay [8], 52 nM; in assay [9], 70 nM. For the same compound, the “IC50 HDAC7” value in [10] is “no activity”. Moreover, the IC50 (commonly the concentration that gives 50% inhibition) in assay [11] (setting [14]) came to 39 nM; in assay [12] (setting [15]) it was 179 nM; in [12] (setting [16]) it was 179 nM; in [13], 69 nM.
On to `CC(=O)SCC/C=C/[C@@H]1CC(=O)NCc2cccc(n2)C(=O)NC(=C(C)C)C(=O)N[C@@H](C(C)C)C(=O)O1` [Compound 20], for which the GI50 in assay [1] was 10 nM; in assay [2], 96 nM; in assay [3] it was 61 nM; in [4], 33 nM; in assay [5], 1100 nM; in assay [6] it was 62 nM. Besides, the GI50 in [7] is 72 nM; in assay [8], 63 nM; in assay [9], 980 nM. The “IC50 HDAC7” value in assay [10] was “no activity”. Moreover, the IC50 in [11] (setting [14]) stood at 45 nM; in [12] (setting [15]), 183 nM; in assay [12] (setting [16]), 183 nM; in assay [13], 65 nM.
Take `C/C=C1\NC(=O)c2nc(ccc2F)CCNC(=O)C[C@@H](/C=C/CCSC(C)=O)OC(=O)[C@H](C(C)C)NC1=O` [Compound 103]: the GI50 in assay [1] was 40 nM; in assay [2], 39 nM; in [3], 31 nM; in assay [4], 51 nM; in [5], 20 nM; in assay [6], 51 nM. Further, the GI50 in assay [7] was 47 nM; in assay [8], 37 nM; in assay [9], 80 nM. In addition, the “IC50 HDAC7” value in assay [10] is listed as “no activity”. Moreover, the half-inhibitory concentration (IC50) in [11] came out at 53 nM; in assay [12] (setting [15]), 38 nM; in assay [13], 16 nM.
`C/C=C1\NC(=O)c2cccc(n2)NC(=O)C[C@@H](/C=C/CCSC(C)=O)OC(=O)[C@H](C(C)C)NC1=O` [Example 22]: the GI50 came to 390 nM in assay [1]; 92 nM in assay [2]; 72 nM in assay [3]; 26 nM in assay [4]; 5880 nM in assay [5]; 39 nM in assay [6]. The GI50 in [7] turned out to be 82 nM; in assay [8], 53 nM; in assay [9] it was 50 nM. Further, in assay [10], the “IC50 HDAC7” value is recorded as “no activity”. For the same compound, the figures for the IC50 in assay [11], in assay [12] (setting [15]) and in assay [13] were 61 nM, 93 nM and 47 nM, respectively.

The values above are taken from patent US10065990B2, “Cyclic peptide compound, and preparation method, pharmaceutical composition and use thereof” (HANGZHOU GUANYU BIO-MEDICAL CO., LTD, priority 2013, dated 2018).
